Laboratory results published in ChEMBL document CHEMBL4680113, “Tigliane Diterpenoids as a New Type of Antiadipogenic Agents Inhibit GRα-Dexras1 Axis in Adipocytes” (J Med Chem, 2019).
Active and inactive are the calls of the source. The calls are words filed in the database; no cut-off is given here.

Tests used:
3T3-L1 [1] = experiment: Lipid lowering activity in mouse 3T3-L1 cells assessed as reduction in adipogenic cocktail-induced triglyceride levels at 10 uM incubated for 6 days by GPO-POD assay; assay type: functional; conditions: for inhibition at 10 µM: 3T3-L1, 144 h, time 6 day; for inhibition: time 6.0 day
3T3-L1 [2] = experiment: Lipid lowering activity in mouse 3T3-L1 cells assessed as reduction in adipogenic cocktail-induced triglyceride levels at 1 to 10 uM by Oil-Red O staining; assay type: functional, cell-based; conditions: dose 1-10 µM
3T3-L1 [3] = experiment: Toxicity in mouse 3T3-L1 cells assessed as reduction in cell viability at 10 uM incubated for 6 days by LDH release assay; assay type: cell-based; conditions: 3t3-l1, 144 h, time 6 day
3T3-L1 [4] = experiment: Inhibition of adipogenic cocktail-induced GR-alpha nuclear translocation in mouse 3T3-L1 cells at 10 uM after 8 hrs by Western blot analysis; assay type: cell-based; conditions: filed as antagonist
3T3-L1 [5] = experiment: Inhibition of GR-alpha in mouse 3T3-L1 cells assessed as reduction in adipogenic cocktail-induced Dexras1 mRNA expression at 10 uM incubated for 4 hrs by RT-qPCR analysis; assay type: cell-based; conditions: filed as antagonist
3T3-L1 [6] = experiment: Lipid lowering activity in mouse 3T3-L1 cells assessed as reduction in adipogenic cocktail induced triglyceride levels at 1 uM incubated for 6 days by GPO-POD assay; assay type: functional, cell-based; conditions: time 6.0 day
3T3-L1 [7] = experiment: Inhibition of adipogenic cocktail-induced PPARgamma mRNA expression in mouse 3T3-L1 cells at 1 uM by RT-qPCR analysis; assay type: functional, cell-based
3T3-L1 [8] = experiment: Lipid increasing activity in mouse 3T3-L1 cells assessed as increase in adipogenic cocktail induced triglyceride levels at 1 uM incubated for 6 days by GPO-POD assay; assay type: functional, cell-based; conditions: time 6.0 day
3T3-L1 [9] = experiment: Activation of GR-alpha in mouse 3T3-L1 cells assessed as increase in adipogenic cocktail-induced Dexras1 mRNA expression at 10 uM incubated for 4 hrs by RT-qPCR analysis; assay type: cell-based; conditions: filed as agonist
3T3-L1 [10] = experiment: Activation of adipogenic cocktail-induced PPARgamma mRNA expression in mouse 3T3-L1 cells at 1 uM by RT-qPCR analysis; assay type: functional, cell-based

Row | SMILES | inhibition at 10 µM (3T3-L1 [1]) [%] | inhibition (3T3-L1 [2]) | Activity (3T3-L1 [3]) | inhibition (3T3-L1 [1]) | also measured
1 | CCC(=O)O[C@@H]1[C@@H]2[C@@H](OC(C)=O)[C@@]34CO[C@@](C)([C@H](OC(C)=O)[C@@]2(OC(C)=O)C[C@@H]1C)[C@@H]3[C@@H]1[C@@H](C[C@]1(C)OC(C)=O)[C@@H](OC(=O)C(C)C)C4=O | > 60 | Active | Non-Toxic |  | 
2 | CC(=O)O[C@@H]1[C@@H]2[C@@H](OC(C)=O)[C@@]34CO[C@@](C)([C@H](OC(C)=O)[C@@]2(OC(C)=O)C[C@@H]1C)[C@@H]3[C@@H]1[C@@H](C[C@]1(C)OC(C)=O)[C@@H](OC(=O)c1ccccc1)C4=O |  |  |  | Active | 
3 | CCC(=O)O[C@@H]1[C@@H]2[C@@H](OC(C)=O)[C@@]34CO[C@@](C)([C@H](OC(C)=O)[C@@]2(O)C[C@@H]1C)[C@@H]3[C@@H]1[C@@H](C[C@]1(C)OC(C)=O)[C@@H](OC(=O)c1ccccc1)C4=O |  |  |  | inactive | 
4 | CCC(=O)O[C@@H]1[C@@H]2[C@@H](OC(C)=O)[C@@]34CO[C@@](C)([C@H](OC(=O)c5ccccc5)[C@@]2(OC(C)=O)C[C@@H]1C)[C@@H]3[C@@H](C(C)(C)OC(C)=O)C=CC4=O |  |  |  | Active | 
5 | CC(=O)O[C@@H]1[C@@H]2[C@@H](OC(C)=O)[C@@]34CO[C@@](C)([C@H](OC(C)=O)[C@@]2(OC(C)=O)C[C@@H]1C)[C@@H]3[C@@H]1[C@@H](C[C@]1(C)OC(C)=O)[C@H](O)C4=O | > 60 | Active | Non-Toxic |  | 
6 | CC(=O)O[C@@H]1[C@]2(C)OC[C@]3(C(=O)C=C[C@H](C(C)(C)OC(C)=O)[C@@H]23)[C@H](OC(C)=O)[C@H]2[C@@H](OC(=O)c3cccnc3)[C@@H](C)C[C@@]21OC(C)=O |  |  |  | inactive | 
7 | CC(=O)O[C@@H]1[C@H]2[C@@H](OC(C)=O)[C@](C)(O)C[C@]2(OC(C)=O)[C@H](OC(=O)c2ccccc2)[C@]2(C)OC[C@]13[C@H](OC(C)=O)C=C[C@H](C(C)(C)OC(C)=O)[C@@H]23 | > 60 | Active | Non-Toxic |  | 
8 | CCC(=O)O[C@@H]1[C@@H]2[C@@H](OC(=O)c3ccccc3)[C@@]3(COC(C)=O)[C@@H]([C@@H]4[C@H](C[C@H]3OC(C)=O)C4(C)C)[C@](C)(OC(C)=O)C(=O)[C@@]2(O)C[C@@H]1C | > 60 | Active | Non-Toxic |  | 
9 | CC#C[C@]1(O)CC[C@H]2[C@@H]3CCC4=CC(=O)CCC4=C3[C@@H](c3ccc(N(C)C)cc3)C[C@@]21C |  |  |  |  | inhibition (3T3-L1 [4]): Active; inhibition (3T3-L1 [5]): Active; inhibition (3T3-L1 [6]): Active; inhibition (3T3-L1 [7]): Active
10 | C[C@H]1C[C@@H]2[C@H]([C@@H](O)C[C@@]3(C)[C@H]2CC[C@]3(O)C(=O)CO)[C@@]2(C)C=CC(=O)C=C12 |  |  |  |  | Activity (3T3-L1 [8]): Active; Activity (3T3-L1 [9]): Active; Activity (3T3-L1 [10]): Active
11 | CCCC(=O)O[C@@H]1[C@@H]2[C@@H](OC(C)=O)[C@@]34CO[C@@](C)([C@H](OC(C)=O)[C@@]2(OC(C)=O)C[C@@H]1C)[C@@H]3[C@@H]1[C@@H](C[C@]1(C)OC(C)=O)[C@@H](OC(=O)c1ccccc1)C4=O |  |  |  | Active | 
12 | CC(=O)O[C@@H]1[C@H]2[C@@H](OC(=O)c3cccnc3)[C@@H](C)C[C@]2(OC(C)=O)[C@@H](OC(C)=O)[C@]2(C)OC[C@]13C(=O)[C@H](OC(=O)C(C)C)[C@@H]1C[C@](C)(OC(C)=O)[C@@H]1[C@@H]23 |  |  |  | inactive | 
13 | CC(=O)O[C@@H]1[C@H]2[C@@H](OC(=O)c3cccnc3)[C@@H](C)C[C@]2(OC(C)=O)[C@@H](OC(C)=O)[C@]2(C)OC[C@]13C(=O)[C@H](O)[C@@H]1C[C@](C)(OC(C)=O)[C@@H]1[C@@H]23 |  | Active | Non-Toxic | inactive | 
14 | CC(=O)O[C@@H]1[C@H]2[C@@H](OC(=O)c3cccnc3)[C@@H](C)C[C@]2(OC(C)=O)[C@@H](OC(C)=O)[C@]2(C)OC[C@]13C(=O)[C@H](OC(=O)c1ccccc1)[C@@H]1C[C@](C)(OC(C)=O)[C@@H]1[C@@H]23 |  |  |  | inactive | 
15 | CCC(=O)O[C@@H]1[C@@H]2[C@@H](OC(C)=O)[C@@]34CO[C@@](C)([C@H](OC(C)=O)[C@@]2(OC(C)=O)C[C@@H]1C)[C@@H]3[C@@H]1[C@@H](C[C@]1(C)OC(C)=O)[C@@H](OC(=O)c1ccccc1)C4=O |  | Active | Non-Toxic | Active | 
16 | CC1=C[C@H]2[C@@H]3C(C)(C)[C@]3(OC(=O)C(C)C)[C@H](OC(=O)c3ccccc3)[C@@H](C)[C@]2(O)[C@@H]2C=C(C)C(=O)C2=C1 | > 50 | Active | Non-Toxic |  | 
17 | CC(=O)O[C@@H]1[C@@H]2[C@@H](OC(C)=O)[C@@]34CO[C@@](C)([C@H](OC(C)=O)[C@@]2(OC(C)=O)C[C@@H]1C)[C@@H]3[C@@H]1[C@@H](C[C@]1(C)OC(C)=O)[C@@H](OC(=O)C(C)C)C4=O |  |  |  | inactive | 
18 | CC1=C[C@@H]2[C@H](C1=O)[C@H](O)C(C)=C[C@H]1[C@@H]3C(C)(C)[C@]3(OC(=O)C(C)C)[C@H](OC(=O)c3ccccc3)[C@@H](C)[C@]21O [EUPHODENDRIANE A] | > 50 | Active | Non-Toxic |  | 
19 | CC(=O)O[C@@H]1[C@H]2[C@@H](OC(=O)c3cccnc3)[C@@H](C)C[C@]2(OC(C)=O)[C@@H](OC(C)=O)[C@]2(C)OC[C@]13C(=O)[C@@H](O)[C@@H]1C[C@](C)(OC(C)=O)[C@@H]1[C@@H]23 |  |  |  | inactive | 
20 | CC(=O)OC[C@]12[C@H](OC(=O)c3ccccc3)[C@H]3[C@@H](OC(=O)c4cccnc4)[C@@H](C)C[C@]3(O)C(=O)[C@@](C)(OC(C)=O)[C@@H]1[C@@H]1[C@H](C[C@H]2OC(C)=O)C1(C)C | > 60 | Active | Non-Toxic |  | 
21 | CCC(=O)O[C@@H]1[C@@H]2[C@@H](OC(C)=O)[C@@]34CO[C@@](C)([C@@H](OC(=O)C(C)CC)[C@@]2(OC(C)=O)C[C@@]1(C)OC(C)=O)[C@@H]3[C@@H](C(C)(C)OC(C)=O)C=C[C@H]4OC(C)=O (some centres not stated) | > 60 | Active | Non-Toxic |  | 
22 | CCC(=O)O[C@@H]1[C@@H]2[C@@H](OC(C)=O)[C@@]34CO[C@@](C)([C@H](OC(C)=O)[C@@]2(OC(C)=O)C[C@@H]1C)[C@@H]3[C@@H]1[C@@H](C[C@]1(C)OC(C)=O)[C@@H](O)C4=O |  | Active | Non-Toxic | Active | 
23 | CCCC(=O)O[C@@H]1[C@@H]2[C@@H](OC(C)=O)[C@@]34CO[C@@](C)([C@H](OC(C)=O)[C@@]2(OC(C)=O)C[C@@H]1C)[C@@H]3[C@@H](C(C)(C)OC(C)=O)C=C[C@H]4OC(C)=O | > 60 | Active | Non-Toxic |  | 
24 | CCC(=O)O[C@@H]1[C@@H]2[C@@H](OC(C)=O)[C@@]34CO[C@@](C)([C@H](OC(C)=O)[C@@]2(OC(C)=O)C[C@@H]1C)[C@@H]3[C@@H]1[C@@H](C[C@]1(C)OC(C)=O)[C@@H](OC(=O)C(C)CC)C4=O (some centres not stated) |  |  |  | inactive | 
25 | CC(=O)O[C@@H]1[C@H]2[C@@H](OC(C)=O)[C@](C)(OC(C)=O)C[C@]2(OC(C)=O)[C@H](OC(=O)c2ccccc2)[C@]2(C)OC[C@]13[C@H](OC(C)=O)C=C[C@H](C(C)(C)OC(C)=O)[C@@H]23 | > 60 | Active | Non-Toxic |  | 
26 | CC(=O)O[C@@H]1[C@@H]2[C@@H](OC(C)=O)[C@@]34CO[C@@](C)([C@H](OC(=O)c5ccccc5)[C@@]2(O)C[C@@H]1C)[C@@H]3[C@@H]1[C@@H](C[C@]1(C)OC(C)=O)[C@@H](OC(=O)c1ccccc1)C4=O |  |  |  | inactive | 
